Reference: PubChem BioAssay (NCI)
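Step 1: Grow cells in 96-well plates. Step 2: Expose to compound for 48 hours at 5 concentrations. Step 3: Interpolate endpoints linearly; if unreached, use highest concentration. Abbreviation: GI50, concentration required for 50% inhibition of growth. TGI: total growth inhibition.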

tested on: CAKI-1 renal; assay: inhibition of tumour cell growth, NCI panel, 48 h

`COC(=O)C(=Cc1cc(OC)c(OC)c(OC)c1-c1cc2c(cc1C1(C)OCCS1)OCO2)C(=O)OC` (configuration not stated) was tested. Which TGI did it give?
The TGI was over 100 µM.

Which TGI does the source give for `C#CC1/C(=C\C(=O)OC)CCCC1O` (configuration not stated) here?
The TGI was over 100 µM.

With `CC12CCC(=O)C[C@H]1CCC(OC=O)C2Br` (some centres not stated) as the compound, how does the TGI read?
Its TGI is over 100 µM.

For `Cc1nc(Nc2ccc(Cl)cc2)sc1C(=O)NNC(=S)NN`, which TGI is on record?
Its TGI is 44.8 µM.

With `CCOC(=O)N[C@H]1CCc2cc(OC)c(OC)c(OC)c2-c2ccc(SC)c(=O)cc21` as the compound, how does the GI50 read?
Its GI50 is under 0.0182 µM.

How did the TGI turn out when `COc1ccc2c(c1OCC(=O)O)C(=O)C(CCC(=O)O)CC2` (configuration not stated) was run?
The TGI was over 100 µM.

With `Cc1ccc2nc(/C(=C/c3ccc(/C=C(\NC(=O)c4ccccc4)c4nc5ccc(C)cc5[nH]4)c(C)c3)NC(=O)c3ccccc3)[nH]c2c1` as the compound, how does the TGI read?
Its TGI is 91.3 µM.

`COC1C(OC(=S)Nc2ccccc2)c2ccccc2N1C(C)=O` (configuration not stated) was tested. Which TGI did it give?
Its TGI is over 100 µM.

Which TGI does the source give for `O=C(Nc1cccc(Cl)c1)C(=O)C(C(=O)c1ccc2ccccc2c1)C1OC(=O)c2ccccc21` (configuration not stated) here?
The TGI was 67.6 µM.

How did the TGI turn out when `CC1=Cc2cccc(C)c2C(=O)C1=O` was run?
The TGI was 32.5 µM.

For `Cc1ccc(C)c(NC(=O)c2cccc([N+](=O)[O-])c2O)c1`, which TGI is on record?
Its TGI is over 100 µM.

With `COCC(OC)C(CC=C(C#N)C#N)OC` (configuration not stated) as the compound, how does the TGI read?
Its TGI is over 100 µM.

Which TGI does the source give for `On1c(-c2ccccc2)c(-c2ccccc2N2CCCC2)c2ccccc21` here?
The TGI was over 100 µM.

`CC(C)(C)c1cc(C(P(=O)(O)O)P(=O)(O)O)cc(C(C)(C)C)c1O` was tested. Which TGI did it give?
The TGI was over 100 µM.

Which TGI does the source give for `CC(C)C1=Cc2ccc3c(c2C(=O)C1=O)CCCC3(C)C` here?
The TGI was 6.69 µM.

Which TGI does the source give for `CSc1nc(SC)c2c(C#N)[nH]nc2n1` here?
The TGI was over 100 µM.

For `COc1c(O)c2c(=O)cc3c4c5c(cc(=O)c6c(O)c(OC)c(CC(C)O)c(c(c1CC(C)O)c24)c65)OCO3` (configuration not stated), which TGI is on record?
The TGI was 24.3 µM.

`NS(=O)(=O)c1ccc(N=Nc2c(O)c(C(=O)O)cc3ccccc23)cc1` was tested. Which TGI did it give?
Its TGI is over 100 µM.

For `Cc1c(N(C)C)ccc2c(=O)c3cccc(CC(=O)O)c3oc12`, which TGI is on record?
The TGI was over 100 µM.

For `C/C(CC(=O)Nc1ccc(C)c(C)c1)=N\N(c1ccccc1)c1ccccc1`, which TGI is on record?
Its TGI is over 100 µM.

With `COC(=O)/C(=N\NC(N)=S)C(C(=O)OC)C(=O)C(=O)Nc1ccc(C)cc1` (configuration not stated) as the compound, how does the TGI read?
Its TGI is over 100 µM.

With `CC(NCCC(c1ccccc1)c1ccccc1)c1ccccc1` (configuration not stated) as the compound, how does the GI50 read?
The GI50 was 2.73 µM.

What about the TGI of the same compound?
The TGI was 9.52 µM.

Which TGI does the source give for `CC1(C)COC(c2cccc3c2C(=O)c2cccc(Cl)c2-3)=N1` here?
Its TGI is over 100 µM.

With `C/C(N=NC(=S)N1CC2CCC(CC2)C1)=C1\C=CC=CN1O` as the compound, how does the TGI read?
The TGI was over 100 µM.

Which TGI does the source give for `c1ccc2c(OCCSCCCCCCCCCCSCCOc3cccc4ccccc34)cccc2c1` here?
Its TGI is over 100 µM.

Which GI50 does the source give for `O=C(Nc1ccc(Br)cc1F)c1cc(Cl)ccc1O` here?
Its GI50 is 0.319 µM.

And the TGI?
The TGI was 2.85 µM.

Which GI50 does the source give for `NC(N)=N/N=C/c1c(Cl)cccc1Cl` here?
The GI50 was 23 µM.

What about the TGI of the same compound?
The TGI was 95.3 µM.

How did the TGI turn out when `Cc1cc2c(=O)c3ccccc3[nH]c2c(C(N)=O)c1C` was run?
Its TGI is over 100 µM.

What does the source list for `O=C(Nc1cccc(C(F)(F)F)c1)c1ccc(NC2=C(Cl)C(=O)N(Cc3ccc(Cl)cc3Cl)C2=O)cc1`?
GI50: 16.8 µM; TGI: 34.6 µM

Which results are given for `CCC[CH2][Sn]([CH2]CCC)([O]C(=O)c1ccc(OC)c(OC)c1OC)[O][Sn]([CH2]CCC)([CH2]CCC)[O]C(=O)c1ccc(OC)c(OC)c1OC`?
GI50: 0.0961 µM; TGI: 0.506 µM

`CN1CCC(=O)/C(=C/c2ccccc2)C1` was tested. Which TGI did it give?
The TGI was 33.9 µM.

tested on: DMS 114 small cell lung; assay: inhibition of tumour cell growth, NCI panel, 48 h

With `COC(=O)C(=Cc1cc(OC)c(OC)c(OC)c1-c1cc2c(cc1C1(C)OCCS1)OCO2)C(=O)OC` (configuration not stated) as the compound, how does the TGI read?
The TGI was over 100 µM.

For `C#CC1/C(=C\C(=O)OC)CCCC1O` (configuration not stated), which TGI is on record?
Its TGI is over 100 µM.

How did the TGI turn out when `CC12CCC(=O)C[C@H]1CCC(OC=O)C2Br` (some centres not stated) was run?
The TGI was over 100 µM.

Which TGI does the source give for `COc1ccc(OCC(=O)O)c2c1CCCC2=O` here?
Its TGI is over 100 µM.

`Cc1nc(Nc2ccc(Cl)cc2)sc1C(=O)NNC(=S)NN` was tested. Which TGI did it give?
The TGI was 39 µM.

With `CCOC(=O)N[C@H]1CCc2cc(OC)c(OC)c(OC)c2-c2ccc(SC)c(=O)cc21` as the compound, how does the TGI read?
Its TGI is under 0.0117 µM.

For `COc1ccc2c(c1OCC(=O)O)C(=O)C(CCC(=O)O)CC2` (configuration not stated), which TGI is on record?
The TGI was over 100 µM.

`Cc1ccc2nc(/C(=C/c3ccc(/C=C(\NC(=O)c4ccccc4)c4nc5ccc(C)cc5[nH]4)c(C)c3)NC(=O)c3ccccc3)[nH]c2c1` was tested. Which TGI did it give?
Its TGI is 69.6 µM.

For `COC1C(OC(=S)Nc2ccccc2)c2ccccc2N1C(C)=O` (configuration not stated), which TGI is on record?
The TGI was over 100 µM.

`O=C(Nc1cccc(Cl)c1)C(=O)C(C(=O)c1ccc2ccccc2c1)C1OC(=O)c2ccccc21` (configuration not stated) was tested. Which TGI did it give?
The TGI was 79.3 µM.

How did the TGI turn out when `Cc1ccc(C)c(NC(=O)c2cccc([N+](=O)[O-])c2O)c1` was run?
The TGI was 47.6 µM.

How did the TGI turn out when `COCC(OC)C(CC=C(C#N)C#N)OC` (configuration not stated) was run?
Its TGI is over 100 µM.

With `On1c(-c2ccccc2)c(-c2ccccc2N2CCCC2)c2ccccc21` as the compound, how does the TGI read?
Its TGI is over 100 µM.

`N#CC(C(=O)/C(=N\NC(N)=O)C(C#N)c1ccc(Cl)cc1)c1ccc(Cl)cc1` (configuration not stated) was tested. Which TGI did it give?
Its TGI is over 100 µM.

With `CC(C)(C)c1cc(C(P(=O)(O)O)P(=O)(O)O)cc(C(C)(C)C)c1O` as the compound, how does the TGI read?
The TGI was over 100 µM.

Which TGI does the source give for `CSc1nc(SC)c2c(C#N)[nH]nc2n1` here?
Its TGI is over 100 µM.

Which TGI does the source give for `Cc1c(N(C)C)ccc2c(=O)c3cccc(CC(=O)O)c3oc12` here?
Its TGI is over 100 µM.

Which TGI does the source give for `CCOC(=O)c1nc2c(OC)nn(O)cc-2c1[N+](=O)[O-]` here?
Its TGI is 48.4 µM.

For `C/C(CC(=O)Nc1ccc(C)c(C)c1)=N\N(c1ccccc1)c1ccccc1`, which TGI is on record?
Its TGI is 33.2 µM.

`COC(=O)/C(=N\NC(N)=S)C(C(=O)OC)C(=O)C(=O)Nc1ccc(C)cc1` (configuration not stated) was tested. Which TGI did it give?
The TGI was over 100 µM.

How did the TGI turn out when `O=C(OC1CCC(=C2SCCCS2)[C@H]1C1SCCCS1)c1ccccc1` (some centres not stated) was run?
Its TGI is over 100 µM.

How did the TGI turn out when `O=C1CCC2(c3ccc(Cl)cc3)Nc3cc(Cl)ccc3N12` (configuration not stated) was run?
The TGI was 21 µM.

Which TGI does the source give for `O=C(/C(=C/c1ccc(Cl)cc1)c1ccccc1)c1ccccc1` here?
The TGI was 37.2 µM.

`CC1(C)COC(c2cccc3c2C(=O)c2cccc(Cl)c2-3)=N1` was tested. Which TGI did it give?
The TGI was over 100 µM.

`CN(C)CCC(/C=C/c1ccccc1)=N\Nc1ccccc1` was tested. Which TGI did it give?
Its TGI is 17.3 µM.

With `C/C(N=NC(=S)N1CC2CCC(CC2)C1)=C1\C=CC=CN1O` as the compound, how does the TGI read?
The TGI was 5.4 µM.

How did the TGI turn out when `CCOC(=O)c1ccc(/C(C)=N/NC(N)=S)cc1` was run?
Its TGI is over 100 µM.

For `c1ccc2c(OCCSCCCCCCCCCCSCCOc3cccc4ccccc34)cccc2c1`, which TGI is on record?
The TGI was over 100 µM.

`Cc1cc2c(=O)c3ccccc3[nH]c2c(C(N)=O)c1C` was tested. Which TGI did it give?
Its TGI is over 100 µM.

What does the source list for `CCC[CH2][Sn]([CH2]CCC)([O]C(=O)c1ccc(OC)c(OC)c1OC)[O][Sn]([CH2]CCC)([CH2]CCC)[O]C(=O)c1ccc(OC)c(OC)c1OC`?
GI50: 0.0281 µM; TGI: 0.171 µM

Which TGI does the source give for `CN1CCC(=O)/C(=C/c2ccccc2)C1` here?
The TGI was 24 µM.

tested on: LOX IMVI melanoma; assay: inhibition of tumour cell growth, NCI panel, 48 h

`COC(=O)C(=Cc1cc(OC)c(OC)c(OC)c1-c1cc2c(cc1C1(C)OCCS1)OCO2)C(=O)OC` (configuration not stated) was tested. Which TGI did it give?
Its TGI is over 100 µM.

Which TGI does the source give for `CC12CCC(=O)C[C@H]1CCC(OC=O)C2Br` (some centres not stated) here?
Its TGI is over 100 µM.

For `COc1ccc(OCC(=O)O)c2c1CCCC2=O`, which TGI is on record?
The TGI was over 100 µM.

How did the TGI turn out when `Cc1nc(Nc2ccc(Cl)cc2)sc1C(=O)NNC(=S)NN` was run?
Its TGI is 29.5 µM.

How did the TGI turn out when `CCOC(=O)N[C@H]1CCc2cc(OC)c(OC)c(OC)c2-c2ccc(SC)c(=O)cc21` was run?
Its TGI is over 100 µM.

`COc1ccc2c(c1OCC(=O)O)C(=O)C(CCC(=O)O)CC2` (configuration not stated) was tested. Which TGI did it give?
The TGI was over 100 µM.

`O=C(Nc1cccc(Cl)c1)C(=O)C(C(=O)c1ccc2ccccc2c1)C1OC(=O)c2ccccc21` (configuration not stated) was tested. Which TGI did it give?
Its TGI is 44.5 µM.

How did the TGI turn out when `CC1=Cc2cccc(C)c2C(=O)C1=O` was run?
Its TGI is 21.5 µM.

For `Cc1ccc(C)c(NC(=O)c2cccc([N+](=O)[O-])c2O)c1`, which TGI is on record?
Its TGI is 53.5 µM.

For `COCC(OC)C(CC=C(C#N)C#N)OC` (configuration not stated), which TGI is on record?
Its TGI is over 100 µM.

For `On1c(-c2ccccc2)c(-c2ccccc2N2CCCC2)c2ccccc21`, which TGI is on record?
Its TGI is over 100 µM.

`N#CC(C(=O)/C(=N\NC(N)=O)C(C#N)c1ccc(Cl)cc1)c1ccc(Cl)cc1` (configuration not stated) was tested. Which TGI did it give?
Its TGI is over 100 µM.

How did the TGI turn out when `CC(C)(C)c1cc(C(P(=O)(O)O)P(=O)(O)O)cc(C(C)(C)C)c1O` was run?
The TGI was over 100 µM.

Which TGI does the source give for `CC(C)C1=Cc2ccc3c(c2C(=O)C1=O)CCCC3(C)C` here?
Its TGI is 24.7 µM.
